Molecular target: T1, hypothalamic CPT1 (Rattus norvegicus, UniProt P32198)
T1 sequence (P32198 1-773): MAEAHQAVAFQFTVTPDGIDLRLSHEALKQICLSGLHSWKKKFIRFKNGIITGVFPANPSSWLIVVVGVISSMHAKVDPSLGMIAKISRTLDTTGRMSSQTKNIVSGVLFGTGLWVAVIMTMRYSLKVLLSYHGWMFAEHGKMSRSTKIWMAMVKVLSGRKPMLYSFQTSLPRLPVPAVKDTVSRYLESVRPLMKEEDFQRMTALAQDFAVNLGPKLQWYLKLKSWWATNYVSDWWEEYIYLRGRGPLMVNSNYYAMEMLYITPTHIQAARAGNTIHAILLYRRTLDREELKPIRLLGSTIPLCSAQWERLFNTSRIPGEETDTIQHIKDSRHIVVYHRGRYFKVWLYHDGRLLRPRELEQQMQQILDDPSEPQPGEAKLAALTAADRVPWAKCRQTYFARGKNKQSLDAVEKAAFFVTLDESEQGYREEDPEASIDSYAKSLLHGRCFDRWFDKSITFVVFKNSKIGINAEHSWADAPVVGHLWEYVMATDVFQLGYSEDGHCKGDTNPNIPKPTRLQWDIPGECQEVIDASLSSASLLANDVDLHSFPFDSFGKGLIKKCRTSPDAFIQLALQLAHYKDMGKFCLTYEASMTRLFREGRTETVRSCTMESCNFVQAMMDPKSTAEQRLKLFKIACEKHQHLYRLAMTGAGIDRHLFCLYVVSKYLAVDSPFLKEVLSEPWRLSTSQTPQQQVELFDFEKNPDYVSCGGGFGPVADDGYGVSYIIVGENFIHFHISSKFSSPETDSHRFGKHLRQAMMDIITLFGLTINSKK
Assay: ICV infusion with pancreatic-insulin clamp, glucose kinetics (Example 1)
Format: in vivo
Design: CPT1 activity was measured in the particulate fraction of protein extracts from animals treated with ICV control injections; from tissue; host or cells: hypothalamus (arcuate nucleus) of male Sprague-Dawley rats, in vivo or ex vivo; Insulin (iU/ml): unit not given here
Conditions: for Food Intake: measured prior to acute ICV infusion, except CPT1L-Ribo group (3 days after ICV); for decrease in glucose production (GP): basal and equal insulin levels (~20 μU/ml), ICV; for glucose production (GP) during pancreatic clamp vs ICV vehicle controls: ~basal insulin concentrations, p<0.01
Procedure: Hypothalamic inhibition of CPT1 inhibits glucose production. Experiments were also designed to examine the effect of central inhibition of CPT-1 on whole body insulin action (FIG. 4a,b). Insulin action was assessed by a combination of ICV infusions with systemic pancreatic-insulin clamp studies (FIG. 4b). In these studies, the daily food intake was matched in the rats receiving ICV vector and ICV CPT1L-Ribo (Table 1). All rats also received an intra-arterial infusion of [3-^3H]-glucose for the last 4 hr of ICV infusion and a pancreatic/insulin clamp (insulin 1 mU/kg.min; somatostatin 3 μg/kg/min) during the last 2 hr of the study (Obici et al., 2002a; Obici et al., 2001). As expected in the presence of ˜basal circulating insulin levels (clamp procedure; Table 1), the rate of glucose infusion (GIR) required to maintain euglycemia was marginal in ICV control studies (vector-ST1340- or vehicle-infused animals; ˜0.8 mg/kg/min). By contrast, following ICV infusion of inhibitors of CPT-1 expression or activity glucose had to be infused at the rate of ˜5 mg/kg/min in order to prevent hypoglycemia. Thus, central inhibition of CPT-1 activity in the presence of fixed and basal insulin concentrations stimulates insulin action on glucose homeostasis.
Animal preparation for in vivo experiments. We studied ninety-three 10-week old male Sprague-Dawley rats (Charles River Breeding Laboratories, Wilmington, Mass.). Rats were housed in individual cages and subjected to a standard light-dark cycle. Three weeks prior to the in vivo studies, we placed a chronic catheter in the third cerebral ventricle by stereotaxic surgery (Obici et al., 2002a; Obici et al., 2001; Liu et al., 1998). One week before the pancreatic-insulin clamp protocols, we placed additional catheters in the right internal jugular and left carotid artery (Obici et al., 2001; Liu et al., 1998). All ICV solutions were dissolved in artificial cerebral spinal fluid (aCSF). Food intake was monitored daily.
Measurements of in vivo glucose kinetics and pancreatic-insulin clamp procedure. The infusion studies lasted a total of 360 min (FIG. 3a). Briefly, at t=0 min a primed-continuous ICV infusion of either CPT1 inhibitors or control solution was initiated and maintained for the remainder of the study. 2-tetradecylglydate (TDGA, a gift from Dr. Manuel Guzman) was dissolved in DMSO, diluted into aCSF (Harvard Apparatus) and infused ICV at a rate of 50 pmoles/hr. […] Prior to the pancreatic-insulin clamp studies, rats receiving ICV injection of either CPT1L-Ribo or vector control three days prior to the clamp procedure were randomized into two pair-fed experimental groups. A primed-continuous infusion of HPLC-purified [3-^3H]-glucose (New England Nuclear, Boston, Mass.; 40 μCi bolus, 0.4 μCi/min) was started at t=120 min and continued for the duration of the study (Obici et al., 2002a; Obici et al., 2001; Liu et al., 1998). Finally, a pancreatic-insulin clamp (Obici et al., 2002a; Obici et al., 2001; Liu et al., 1998) was initiated at t=240 min and lasted for 2 hours. This procedure involved the infusion of somatostatin (3 μg/kg/min), insulin (1 mU/kg/min), and glucose as needed to prevent hypoglycemia, or antibodies against C peptide (Linco) and Melanocortin Receptor type 2 (Chemicon). The rate of insulin infusion was designed to replace normal basal levels in postabsorptive rats.
Radioactivity of [^3H]glucose in plasma was measured from supernatants of Ba(OH)2 and ZnSO4 precipitates after evaporation to dryness for the removal of tritiated water (Somogyi pellet). The specific activity of tritiated water in plasma (Somogyi filtrate) was determined from the total counts of the protein-free supernatant before and after evaporation to dryness. Under steady state conditions for plasma glucose concentration, the rate of glucose disappearance (Rd) equals the rate of glucose appearance (Ra). […]

Row | Insulin (Basal) | Leptin (Basal) | Compound | Body wt. (Basal) | FFA (Basal) | Glucose (Basal) | Food Intake (Basal) | FFA (Clamp, steady-state) | Glucose (Clamp, steady-state) | Insulin (iU/ml) (Clamp, steady-state) | decrease in glucose production (GP) | glucose production (GP) during pancreatic clamp vs ICV vehicle controls
1 | 1.4 ± 0.2 ng/mL | 0.9 ± 0.1 ng/mL | CCCCCCCCCCCCCCNC(=O)N[C@H](CC(=O)[O-])C[N+](C)(C)C [ST1326, (R)-N-(tetradecylcarbamoyl)-aminocarnitine] | 302 ± 4 g | 0.5 ± 0.1 mM | 8.1 ± 0.7 mM | 21 ± 2 g | 0.4 ± 0.1 mM | 8.1 ± 0.8 mM | 21 ± 2 | 44±7% | markedly inhibited GP
2 | – | – | CPT1L-Ribo: plasmid (pTarget, CMV promoter) expressing a hammerhead ribozyme that specifically cleaves rat CPT1L mRNA, complexed to PEI for ICV injection (DNA CUGUACCAAAGAGCUGUAGAGUCCGUGAGGACGAAACGCCGCUCACAAUG) | 277 ± 8 g | 0.5 ± 0.1 mM | 8.2 ± 0.6 mM | 14 ± 2 g | 0.4 ± 0.1 mM | 8.1 ± 0.5 mM | 21 ± 2 | 30±3% | markedly inhibited GP

— US7705016B2, “Regulation of food intake by modulation of long-chain fatty acyl-CoA levels in the hypothalamus” (Albert Einstein College of Medicine of Yeshiva University, priority 2003, dated 2010)
